US5053070A, “Pyrimidine derivatives, preparation processes thereof, herbicide containing the same, and herbicidal compositions containing the same along with other active ingredient” (Mitsui Toatsu Chemicals, Incorporated, priority 1988, dated 1991)

Columns and labels:
[1] = tested on: ALS (acetolactate syntase); test: ALS enzyme assay (Test 1); format: biochemical, barnyardgrass; conditions: 1,000 ppm (0.5 mg/0.5 ml)
Description: To determine the selectivity in enzyme level between crops and weeds, and ALS enzyme assay was conducted using pea as a representative of broadleaf crops and barnyardgrass as a representative of narrowleaf weeds.
After seeds of pea and barnyardgrass were allowed to germinate at 25° C. for 8-14 days in a dark place, partially-purified suspensions (Suspensions A) of acetolactate syntase were separately obtained from seedlings in accordance with the method described in the literature, Plant Physiology, 75, 827-831.
In a test tube, 0.5 mg of one of test compounds was weighed, followed by the addition of 0.15 ml of a 20 mM K2 HPO4 solution and 0.25 ml of a reaction substrate medium which consisted of 40 mM of K2 HPO4, 40 mM of sodium pyruvate, 1 mM of TPP, 1 mM of MgCl2 and 20 μM of FAD so that 0.4 ml of a reaction solution (Solution B) was prepared. Added to 0.4 ml of Solution B was 0.1 ml of suspension A. After the resultant mixture was shaken for 1 hour in a thermostat water bath controlled at 30° C., 50 μl of 6N sulfuric acid were added to terminate the reaction.
Next, the reaction-terminated liquid mixture was transferred into a thermostat water bath controlled at 60° C. and was heated for 15 minutes. Thereafter, 0.5 ml of a 0.5% creatine solution and 0.5 ml of a 5% alkaline α-naphthol solution were added, and the resultant mixture was maintained at 60° C. for 15 minutes. As a result, the test solution developed a pink-red color. After the above operation, the absorbance of the test solution at 525 nm was measured by a spectrophotometer (Absorbance 1 of Test Compound).
On the other hand, the absorbance (Absorbance 2 of Blank) of a solution obtained by subjecting a portion of Solution B, said portion being free of the test compound, to the above operation and the absorbance (Absorbance 3 of sulfuric acid terminated) of another solution obtained by subjecting another portion of Solution B, said portion containing 50 μl of 6N sulfuric acid as a test compound, were measured at the same time. Based on the values of the respective measurements, the enzyme assay at 1,000 ppm (0.5 mg/0.5 ml) of each compound was determined. [formula]

[2] = tested on: barnyardgrass; test: Upland soil application test (Test 2); format: in vivo; conditions: 30 g ai/a, soil spray before emergence, 30 days later
Description: (§1) Resin-made 1/2500-are pots were filled with the soil of an upland field. After they were fertilized, soybean, peanut and cotton were seeded and 2-3 cm soil covering was applied. Seeds of redroot pigweed, common lambsquarters, barnyardgrass, green foxtail, large crabgrass, foxtail meadow and johnsongrass had been uniformly mixed with the soil. They were allowed to germinate in a green house. One day later (before emergence of weeds), a wettable powder prepared from a predetermined amount of each test compound in a similar manner to the method described in Formulation Example 1 was diluted with water and then sprayed evenly at an application rate equal to 10 l per are onto the surface of the soil by means of a pressure-operated ULV (ultra low volume) sprayer. Influence to the crops and weeds were observed 30 days later. The results are shown in Table 3, in which the degree of damages of each test plant and the degree of injury to each crop were determined by comparing the air-dried weights of the test plant and crop with those of the corresponding plant and crop in untreated pots and are shown in accordance with the following standard: […]

[3] = tested on: common lambsquarters; test: Upland soil application test (Test 2); format: in vivo; conditions: 30 g ai/a, soil spray before emergence, 30 days later
Description: as §1

[4] = tested on: foxtail meadow; test: Upland soil application test (Test 2); format: in vivo; conditions: 30 g ai/a, soil spray before emergence, 30 days later
Description: as §1

[5] = tested on: green foxtail; test: Upland soil application test (Test 2); format: in vivo; conditions: 30 g ai/a, soil spray before emergence, 30 days later
Description: as §1

[6] = tested on: johnsongrass; test: Upland soil application test (Test 2); format: in vivo; conditions: 30 g ai/a, soil spray before emergence, 30 days later
Description: as §1

[7] = tested on: large crabgrass; test: Upland soil application test (Test 2); format: in vivo; conditions: 30 g ai/a, soil spray before emergence, 30 days later
Description: as §1

[8] = tested on: redroot pigweed; test: Upland soil application test (Test 2); format: in vivo; conditions: 30 g ai/a, soil spray before emergence, 30 days later
Description: as §1

[9] = tested on: cotton; test: Upland soil application test (Test 2), crop injury; format: in vivo; conditions: 30 g ai/a, soil spray before emergence, 30 days later
Description: as §1

[10] = tested on: peanut; test: Upland soil application test (Test 2), crop injury; format: in vivo; conditions: 30 g ai/a, soil spray before emergence, 30 days later
Description: as §1

[11] = tested on: soybean; test: Upland soil application test (Test 2), crop injury; format: in vivo; conditions: 30 g ai/a, soil spray before emergence, 30 days later
Description: as §1

[12] = tested on: Sagittaria pygmaea; test: Treatment of soil under submerged condition, pre-emergence (Test 4); format: in vivo; conditions: 30 g ai/a granule, 30 days later
Description: (§2) 1/5000-are Wagner pots were filled with soil. Seeds or tubers of barnyardgrass, Monochoria vaginalis, bulrush, Sagittaria pygmaea, Cyperus seroylnus and Eleocharis kuroguwai were seeded or planted under submerged condition. Two pairs of rice seedlings (2-3 leaf stage), which had been reared in advance, were transplanted to each pot and were allowed to germinate in a green house. Each pair consisted of two rice seedlings. One day later (before emergence of weeds), each pot was treated with a granule which had been prepared by processing a predetermined amount of the test composition in accordance with a similar method to the method described in Formulation Example 9. The state of emergence of weeds and the state of injury of rice were observed 30 days later.
(§3) In the table, the degrees of damages of the test plants and the degrees of injury of rice are shown in a similar manner to Example 2.

[13] = tested on: barnyardgrass; test: as above; format: in vivo; conditions: 30 g ai/a granule, 30 days later
Description: as §2, §3

[14] = tested on: bulrush; test: as above; format: in vivo; conditions: 30 g ai/a granule, 30 days later
Description: as §2, §3

[15] = tested on: Sagittaria pygmaea; test: Treatment of soil under submerged condition, post-emergence (Test 5); format: in vivo; conditions: 30 g ai/a granule, 30 days later
Description: as §2, with “serroylnus” for “seroylnus”, “grow” for “germinate”, “When the barnyardgrass grew to two-leaf stage,” for “One day later (before emergence of weeds),”
(§4) In the table, the degrees of damages of the test plants and the degrees of injury of the rice are shown in a similar manner to Example 2.

[16] = tested on: barnyardgrass; test: as above; format: in vivo; conditions: 30 g ai/a granule, post-emergence (barnyardgrass two-leaf stage), 30 days later
Description: as §2, with “serroylnus” for “seroylnus”, “grow” for “germinate”, “When the barnyardgrass grew to two-leaf stage,” for “One day later (before emergence of weeds),”
as §4

[17] = tested on: bulrush; test: as above; format: in vivo; conditions: 30 g ai/a granule, 30 days later
Description: as §2, with “serroylnus” for “seroylnus”, “grow” for “germinate”, “When the barnyardgrass grew to two-leaf stage,” for “One day later (before emergence of weeds),”
as §4

| Inhibitory activity (%) Barnyardgrass [1] [%] | Compound | Herbicidal effects Barnyardgrass [2] | Herbicidal effects Common lambsquarters [3] | Herbicidal effects Foxtail meadow [4] | Herbicidal effects Green foxtail [5] | Herbicidal effects Johnsongrass [6] | Herbicidal effects Large crabgrass [7] | Herbicidal effects Redroot pigweed [8] | Injury Cotton [9] | Injury Peanut [10] | Injury Soybean [11] | Herbicidal effects Sagittaria Pygmaea [12] | Herbicidal effects Barnyardgrass [13] | Herbicidal effects Bulrush [14] | Herbicidal effects Sagittaria Pygmaea [15] | Herbicidal effects Barnyardgrass [16] | Herbicidal effects Bulrush [17] |
| --- | --- | --- | --- | --- | --- | --- | --- | --- | --- | --- | --- | --- | --- | --- | --- | --- | --- |
| 91 | COc1cccc(C=CCON=Cc2ccccc2Oc2nc(OC)cc(OC)n2)c1 [compound 38] | 5 (0-5 (Death)) | 4 (6-10 (Severe damages)) | 4 (6-10 (Severe damages)) | 5 (0-5 (Death)) | 5 (0-5 (Death)) | 5 (0-5 (Death)) | 4 (6-10 (Severe damages)) | 0 (91-100 (No damages)) | 0 (91-100 (No damages)) | 0 (91-100 (No damages)) | 5 (0-5 (Death)) | 4 (6-10 (Severe damages)) | 4 (6-10 (Severe damages)) | 4 (6-10 (Severe damages)) | 5 (0-5 (Death)) | 5 (0-5 (Death)) |
| 91 | COc1cc(OC)nc(Oc2ccccc2C=NOCC=Cc2c(F)cccc2F)n1 [compound 33] | 5 (0-5 (Death)) | 4 (6-10 (Severe damages)) | 5 (0-5 (Death)) | 5 (0-5 (Death)) | 5 (0-5 (Death)) | 5 (0-5 (Death)) | 4 (6-10 (Severe damages)) | 0 (91-100 (No damages)) | 0 (91-100 (No damages)) | 0 (91-100 (No damages)) | 5 (0-5 (Death)) | 4 (6-10 (Severe damages)) | 4 (6-10 (Severe damages)) | 4 (6-10 (Severe damages)) | 5 (0-5 (Death)) | 5 (0-5 (Death)) |
| 23 | COc1cc(OC)nc(Oc2ccccc2C=NOCc2ccccc2)n1 [Compound No. 15] | 5 (0-5 (Death)) | 4 (6-10 (Severe damages)) | 5 (0-5 (Death)) | 5 (0-5 (Death)) | 5 (0-5 (Death)) | 4 (6-10 (Severe damages)) | 4 (6-10 (Severe damages)) | 0 (91-100 (No damages)) | 0 (91-100 (No damages)) | 0 (91-100 (No damages)) | 3 (11-40 (Medium damages)) | 4 (6-10 (Severe damages)) | 1 (71-90 (Slight damages)) | 3 (11-40 (Medium damages)) | 5 (0-5 (Death)) | 4 (6-10 (Severe damages)) |
| 58 | CON=Cc1ccccc1Oc1nc(OC)cc(OC)n1 [Compound No. 1, O-methyl--2-(4,6-dimethoxy-2-pyrimidinyloxy)benzaldoxime] | 5 (0-5 (Death)) | 4 (6-10 (Severe damages)) | 5 (0-5 (Death)) | 5 (0-5 (Death)) | 5 (0-5 (Death)) | 4 (6-10 (Severe damages)) | 5 (0-5 (Death)) | 0 (91-100 (No damages)) | 0 (91-100 (No damages)) | 0 (91-100 (No damages)) | 3 (11-40 (Medium damages)) | 2 (41-70 (Small damages)) | 2 (41-70 (Small damages)) | 3 (11-40 (Medium damages)) | 4 (6-10 (Severe damages)) | 5 (0-5 (Death)) |
| 26 | COc1cc(OC)nc(Oc2ccccc2C=NOC(C)c2ccccc2)n1 (centres unmarked) [compound 21] | 3 (11-40 (Medium damages)) | 3 (11-40 (Medium damages)) | 3 (11-40 (Medium damages)) | 4 (6-10 (Severe damages)) | 4 (6-10 (Severe damages)) | 4 (6-10 (Severe damages)) | 3 (11-40 (Medium damages)) | 0 (91-100 (No damages)) | 0 (91-100 (No damages)) | 0 (91-100 (No damages)) | 3 (11-40 (Medium damages)) | 3 (11-40 (Medium damages)) | 3 (11-40 (Medium damages)) | 3 (11-40 (Medium damages)) | 3 (11-40 (Medium damages)) | 3 (11-40 (Medium damages)) |
| 14 | COc1cc(OC)nc(Oc2ccccc2C=NOCc2ccc(Cl)c(Cl)c2)n1 [compound 18] | 4 (6-10 (Severe damages)) | 4 (6-10 (Severe damages)) | 3 (11-40 (Medium damages)) | 4 (6-10 (Severe damages)) | 3 (11-40 (Medium damages)) | 3 (11-40 (Medium damages)) | 3 (11-40 (Medium damages)) | 0 (91-100 (No damages)) |  | 0 (91-100 (No damages)) | 4 (6-10 (Severe damages)) | 4 (6-10 (Severe damages)) | 2 (41-70 (Small damages)) | 4 (6-10 (Severe damages)) | 3 (11-40 (Medium damages)) | 4 (6-10 (Severe damages)) |
